Measured values: patent US20110152094A1, “Herbicidal compositions comprising flufenacet” (Bayer CropScience AG, priority 2009, published 2011)

Tests used:
Type in all cases: in vivo
[1] = system: ALOMY resistant (Alopecurus myosuroides); experiment: Greenhouse trial, PE application on resistant biotypes (test method 8); details: resistant biotype, g of AS/ha: (A) 90, (B) 1200, (A)+(B) 90 + 1200
Procedure: (§1) In the standard design of the test, seeds of various broad-leaved weed and weed grass biotypes (origins) were sown in a 8-13 cm diameter pot filled with natural soil of a standard field soil (loamy silt; non-sterile) and covered with a covering soil layer of about 1 cm. The pots were then cultivated in a greenhouse (12-16 h of light, temperature day 20-22° C., night 15-18° C.) until the time of application. The pots were treated on a laboratory track sprayer with spray liquors comprising the compositions according to the invention, mixtures of the prior art or components used individually. Application of the active compounds or active compound combinations formulated as WG, WP, EC or otherwise was carried out at the appropriate growth stages of the plants. The application rate for the spray application was 100-600 l of water/ha. After the treatment, the plants were returned to the greenhouses.
(§2) About 3 weeks after the application, the soil action or/and foliar action was assessed visually according to a scale of 0-100% in comparison to an untreated comparative group: 0%=no noticeable effect compared to the untreated comparative group; 100%=full effect compared to the untreated comparative group.
(§3) (notes: the term “seeds” also includes vegetative propagation forms such as, for example, rhizome pieces; abbreviations used: h light=hours of illumination, g of AS/ha=gram of active substance per hectare, l/ha=liter per hectare, S=sensitive, R=resistant) • 1. Pre-emergence action against weeds: seeds of various broad-leaved weed and weed grass biotypes (origins) were sown in a 8-13 cm diameter pot filled with natural soil of a standard field soil (loamy silt; non-sterile) and covered with a covering soil layer of about 1 cm. The pots were then cultivated in a greenhouse (12-16 h of light, temperature day 20-22° C., night 15-18° C.) until the time of application. The pots were treated at the BBCH stage 00-10 of the seeds/plants on a laboratory track sprayer with spray liquors comprising the compositions according to the invention, mixtures or components used individually, as WG, WP, EC or other formulations. The application rate for the spray application was 100-600 l of water/ha. After the treatment, the plants were returned to the greenhouses and, when required, treated with fertilizer and watered. • 2. Post-emergence action against weeds: seeds of various broad-leaved weed and weed grass biotypes (origins) were sown in a 8-13 cm diameter pot filled with natural soil of a standard field soil (loamy silt; non-sterile) and covered with a covering soil layer of about 1 cm. The pots were then cultivated in a greenhouse (12-16 h of light, temperature day 20-22° C., night 15-18° C.) until the time of application. The pots were treated at various BBCH stages between 11-25 of the seeds/plants, i.e. generally between two to three weeks after the start of the cultivation, on a laboratory track sprayer with spray liquors comprising the compositions according to the invention, mixtures or components used individually, as WG, WP, EC or other formulations. The application rate for the spray application was 100-600 l of water/ha. After the treatment, the plants were returned to the greenhouses and, when required, treated with fertilizer and watered. • 3. Selective pre-emergence action: seeds of various crop species (origins) were sown in a 8-13 cm diameter pot filled with natural soil of a standard field soil (loamy silt; non-sterile) and covered with a covering soil layer of about 1 cm. The pots were then cultivated in a greenhouse (12-16 h of light, temperature day 20-22° C., night 15-18° C.) until the time of application. The pots were treated at the BBCH stage 00-10 of the seeds/plants on a laboratory track sprayer with spray liquors comprising the compositions according to the invention, mixtures or components used individually, as WG, WP, EC or other formulations. The application rate for the spray application was 100-600 l of water/ha. […]

[2] = system: MATCH resistant (Matricaria chamomilla); experiment: as above; details: resistant biotype, g of AS/ha: (A) 90, (B) 1200, (A)+(B) 90 + 1200, (C) 10
Procedure: as §1, §2, §3

[3] = system: MATCH sensitive (Matricaria chamomilla); experiment: as above; details: sensitive biotype, g of AS/ha: (A) 90, (B) 1200, (A)+(B) 90 + 1200, (C) 10
Procedure: as §1, §2, §3

[4] = system: ALOMY sensitive (Alopecurus myosuroides); experiment: as above; details: sensitive biotype, g of AS/ha: (A) 90, (B) 1200, (A)+(B) 90 + 1200
Procedure: as §1, §2, §3

AVEFA = Avena fatua [5] = experiment: Greenhouse trial, pre-emergence (PE) action against weeds (test method 1); details: PE application; g of AS/ha: (A) 90, (B) 1200, (A)+(B) 90 + 1200
Procedure: as §1, §2
(§4) (notes: the term “seeds” also includes vegetative propagation forms such as, for example, rhizome pieces; abbreviations used: h light=hours of illumination, g of AS/ha=gram of active substance per hectare, l/ha=liter per hectare, S=sensitive, R=resistant) • 1. Pre-emergence action against weeds: seeds of various broad-leaved weed and weed grass biotypes (origins) were sown in a 8-13 cm diameter pot filled with natural soil of a standard field soil (loamy silt; non-sterile) and covered with a covering soil layer of about 1 cm. The pots were then cultivated in a greenhouse (12-16 h of light, temperature day 20-22° C., night 15-18° C.) until the time of application. The pots were treated at the BBCH stage 00-10 of the seeds/plants on a laboratory track sprayer with spray liquors comprising the compositions according to the invention, mixtures or components used individually, as WG, WP, EC or other formulations. The application rate for the spray application was 100-600 l of water/ha. After the treatment, the plants were returned to the greenhouses and, when required, treated with fertilizer and watered. • 2. Post-emergence action against weeds: seeds of various broad-leaved weed and weed grass biotypes (origins) were sown in a 8-13 cm diameter pot filled with natural soil of a standard field soil (loamy silt; non-sterile) and covered with a covering soil layer of about 1 cm. The pots were then cultivated in a greenhouse (12-16 h of light, temperature day 20-22° C., night 15-18° C.) until the time of application. […]

[6] = system: MATCH = Matricaria chamomilla; experiment: as above; details: PE application; g of AS/ha: (A) 90, (B) 1200, (A)+(B) 90 + 1200
Procedure: as §1, §2, §4

STEME = Stellaria media [7] = experiment: Greenhouse trial, PE application at different sowing depths (test method 9); details: g of AS/ha: (A) 120, (B) 1200, (A)+(B) 120 + 1200
Procedure: as §1, §2, §3

LOLPE = Lolium perenne [8] = experiment: as above; details: g of AS/ha: (A) 120, (B) 1200, (A)+(B) 120 + 1200
Procedure: as §1, §2, §3

VIOAR = Viola arvensis = experiment: Greenhouse trial, post-emergence (PO) action against weeds (test method 2); details: PO application; g of AS/ha: (A) 120, (B) 1200, (A)+(B) 120 + 1200; about 3 weeks after application
Procedure: as §1, §2, §3

STEME = Stellaria media [9] = experiment: as above; details: PO application; g of AS/ha: (A) 120, (B) 1200, (A)+(B) 120 + 1200; about 3 weeks after application
Procedure: as §1, §2, §3

LOLPE = Lolium perenne [10] = experiment: as above; details: PO application; g of AS/ha: (A) 120, (B) 1200, (A)+(B) 120 + 1200; about 3 weeks after application
Procedure: as §1, §2, §3

STEME = Stellaria media [11] = experiment: Greenhouse trial, activity with different soil types (test method 7); details: g of AS/ha: (A) 120, (B) 1200, (A)+(B) 120 + 1200
Procedure: as §1, §2, §3

AVEFA = Avena fatua [12] = experiment: Greenhouse trial, pre-sowing application 7 days prior to sowing (test method 5); details: g of AS/ha: (A) 90, (B) 1200, (A)+(B) 90 + 1200
Procedure: as §1, §2
(§5) (notes: the term “seeds” also includes vegetative propagation forms such as, for example, rhizome pieces; abbreviations used: h light=hours of illumination, g of AS/ha=gram of active substance per hectare, l/ha=liter per hectare, S=sensitive, R=resistant) • 1. Pre-emergence action against weeds: seeds of various broad-leaved weed and weed grass biotypes (origins) were sown in a 8-13 cm diameter pot filled with natural soil of a standard field soil (loamy silt; non-sterile) and covered with a covering soil layer of about 1 cm. The pots were then cultivated in a greenhouse (12-16 h of light, temperature day 20-22° C., night 15-18° C.) until the time of application. The pots were treated at the BBCH stage 00-10 of the seeds/plants on a laboratory track sprayer with spray liquors comprising the compositions according to the invention, mixtures or components used individually, as WG, WP, EC or other formulations. The application rate for the spray application was 100-600 l of water/ha. After the treatment, the plants were returned to the greenhouses and, when required, treated with fertilizer and watered. • 2. Post-emergence action against weeds: seeds of various broad-leaved weed and weed grass biotypes (origins) were sown in a 8-13 cm diameter pot filled with natural soil of a standard field soil (loamy silt; non-sterile) and covered with a covering soil layer of about 1 cm. The pots were then cultivated in a greenhouse (12-16 h of light, temperature day 20-22° C., night 15-18° C.) until the time of application. The pots were treated at various BBCH stages between 11-25 of the seeds/plants, i.e. generally between two to three weeks after the start of the cultivation, on a laboratory track sprayer with spray liquors comprising the compositions according to the invention, mixtures or components used individually, as WG, WP, EC or other formulations. The application rate for the spray application was 100-600 l of water/ha. After the treatment, the plants were returned to the greenhouses and, when required, treated with fertilizer and watered. • 3. […]

[13] = system: MATCH = Matricaria chamomilla; experiment: as above; details: g of AS/ha: (A) 90, (B) 1200, (A)+(B) 90 + 1200
Procedure: as §1, §2, §5

AVEFA = Avena fatua [14] = experiment: Greenhouse trial, PE application with different irrigation variations (test method 6); details: g of AS/ha: (A) 120, (B) 1200, (A)+(B) 120 + 1200
Procedure: as §1, §2, §3

[15] = system: MATCH = Matricaria chamomilla; experiment: as above; details: g of AS/ha: (A) 120, (B) 1200, (A)+(B) 120 + 1200
Procedure: as §1, §2, §3

For `CC(C)N(C(=O)COc1nnc(C(F)(F)F)s1)c1ccc(F)cc1` [(A) flufenacet, N-(4-fluorophenyl)-N-(1-methylethyl)-2-[[5-(trifluoromethyl)-1,3,4-thiadiazol-2-yl]oxy]acetamide], the “activity ALOMY resistant (visual assessment, scale 0-100% vs untreated)” value [1] was 68%, the “activity MATCH resistant (visual assessment, scale 0-100% vs untreated)” value [2] was 30% and the “activity MATCH sensitive (visual assessment, scale 0-100% vs untreated)” value [3] was 30%. The “activity ALOMY sensitive (visual assessment, scale 0-100% vs untreated)” value [4] was 80%, the “activity AVEFA (visual assessment, scale 0-100% vs untreated)” value (AVEFA = Avena fatua [5]) was 85% and the “activity MATCH (visual assessment, scale 0-100% vs untreated)” value [6] was 15%. The “activity STEME, sowing depth 5 mm (visual assessment, scale 0-100% vs untreated)” value (STEME = Stellaria media [7]; sowing depth 5 mm) was 0%, the “activity STEME, sowing depth 20 mm (visual assessment, scale 0-100% vs untreated)” value (STEME = Stellaria media [7]; sowing depth 20 mm) was 20% and the “activity LOLPE, sowing depth 5 mm (visual assessment, scale 0-100% vs untreated)” value (LOLPE = Lolium perenne [8]; sowing depth 5 mm) was 80%. For the same molecule, the “activity LOLPE, sowing depth 20 mm (visual assessment, scale 0-100% vs untreated)” value (LOLPE = Lolium perenne [8]; sowing depth 20 mm) was 90%, the “activity VIOAR (visual assessment, scale 0-100% vs untreated)” value (VIOAR = Viola arvensis) was 40% and the “activity STEME (visual assessment, scale 0-100% vs untreated)” value (STEME = Stellaria media [9]) was 30%. The “activity LOLPE (visual assessment, scale 0-100% vs untreated)” value (LOLPE = Lolium perenne [10]) was 65%, the “activity STEME IU soil (visual assessment, scale 0-100% vs untreated)” value (STEME = Stellaria media [11]; IU soil (loamy silt, standard field soil)) was 89% and the “activity STEME IU/EC73 soil (visual assessment, scale 0-100% vs untreated)” value (STEME = Stellaria media [11]; IU/EC73 soil (heavier soil, higher organic substance)) was 0%. For the same molecule, the “Difference of the soil types Δ^D, STEME” value (STEME = Stellaria media [11]; IU/EC73 soil versus IU soil) was “Δ^D −89%”, the “activity AVEFA (visual assessment, scale 0-100% vs untreated)” value (AVEFA = Avena fatua [12]) was 70% and the “activity MATCH (visual assessment, scale 0-100% vs untreated)” value [13] was 93%. For the same molecule, the “activity AVEFA (visual assessment, scale 0-100% vs untreated)” value (AVEFA = Avena fatua [14]; irrigation from above) was 85%, the “activity AVEFA (visual assessment, scale 0-100% vs untreated)” value (AVEFA = Avena fatua [14]; irrigation from below) was 50% and the “activity MATCH (visual assessment, scale 0-100% vs untreated)” value ([15]; irrigation from above) was 97%. For the same molecule, the “activity MATCH (visual assessment, scale 0-100% vs untreated)” value ([15]; irrigation from below) was 35%.
